{"source": "patent US20250042926A1", "about": "“THERAPEUTIC COMPOUNDS FOR HIV” (priority 2023, published 2025)", "assay_type": "physicochemical", "conditions": "kinetic solubility from DMSO stock, 1.0% DMSO, 24-hour incubation at ambient temperature, filtrate quantified by CLND", "protocol": "2. Kinetic Solubility Analysis (CLND: Total Chemiluminescent Nitrogen Determination)\nThe final DMSO Concentration is 1.0% and maximum theoretical compound concentration is […] (assuming stock concentration of 10 mM). The filter plate is sealed. Following 24-hour incubation at ambient temperature (21.7-23.8° C.), the samples are vacuum filtered, and the filtrates are collected in a 96 well polypropylene plate for analysis. The collection plate is sealed for analysis.\nFiltrates are injected into the nitrogen detector for quantification on Analiza's Automated Discovery Workstation. The equimolar nitrogen response of the detector is calibrated using standards which span the dynamic range of the instrument from 0.08 to 4500 μg/ml nitrogen. The filtrates are quantified with respect to this calibration curve. The calculated solubility values are corrected for background nitrogen present in the DMSO, and the media used to prepare the samples. The 1×PBS buffer (pH 7.4) is prepared by adding 50 mL of phosphate buffered saline solution 10×, PBS (Fisher Bioreagent part number BP399-500) to approximately 450 mL HPLC grade H2O. The volume of the solution is then adjusted to 500 mL for a total dilution factor of 1:10 and a final PBS concentration of 1X.", "data": [{"smiles": "Cc1cc(CC(=O)N[C@@H](CC(=O)O)C(=O)O)c(C(C)(C)CC(=O)N(c2nn(C)c3c(-n4c([C@H](Cc5cc(F)cc(F)c5)NC(=O)Cn5nc(C(F)F)c6c5C(F)(F)[C@@H]5C[C@H]65)nc5cc(-c6cccc(C(F)(F)F)n6)ccc5c4=O)ccc(Cl)c23)S(C)(=O)=O)c(OP(=O)(O)O)c1", "note": "[Compound 5, (2-(2-(4-(N-(4-Chloro-7-(2-((S)-1-(2-((3bS,4aR)-3-(difluoromethyl)-5,5-difluoro-3b,4,4a,5-tetrahydro-1H-cyclopropa[3,4]cyclopenta[1,2-c]pyrazol-1-yl)acetamido)-2-(3,5-difluorophenyl)ethyl)-4-oxo-7-(6-(trifluoromethyl)pyridin-2-yl)quinazolin-3(411)-yl)-1-methyl-1H-indazol-3-yl)methylsulfonamido)-2-methyl-4-oxobutan-2-yl)-5-methyl-3-(phosphonooxy)phenyl)acetyl)-L-aspartic acid]", "values": [{"measurement": "pH 2 Solubility (μM)", "setting": "pH 2 (medium 0.1N HCl)", "value": 1.1, "unit": "μM"}, {"measurement": "pH 7 Solubility (μM)", "setting": "pH 7 (medium 1×PBS buffer pH 7.4)", "value": 76, "unit": "μM"}]}]}
